According to US20240390372A1, “METHODS OF TREATING HAIR-LOSS DISORDERS WITH TYK2 INHIBITORS” (Bristol-Myers Squibb Company, priority 2021, published 2024):

Experiments:
[1] = system: ex vivo cultured hair follicles; assay: IFNγ secretion into the medium of ex vivo cultured hair follicles treated with IL-12+IL-18 (ELISA; prophylactic and therapeutic assays); assay type: cell-based, human; details: for IFNγ release into the culture medium: hair follicles treated with IL-12+IL-18, assay format not given
Protocol: (§1) Resident immune cell populations were assessed by quantification of CD3-positive cells and of CD56-positive cells. Gene expression of treated hair follicles was assessed using whole transcriptome analysis. IFNγ production was quantified by enzyme-linked immunosorbent assay (R&D systems). IL-12RB2-expressing cells were evaluated in healthy donors, acute AA patients, and chronic AA patients using immunohistomorphometry.
The effect of TYK2 inhibition on IFNγ production by hair follicles was also assessed. Specifically, two assays were performed to examine how TYK2 inhibition affects IFNγ secretion into the medium of ex vivo cultured hair follicles treated with IL-12+IL-18. In the prophylactic assay, hair follicles were pre-treated with the compound of Formula (II) or with tofacitinib, and then were cultured in the presence of IL-12+IL-18, after which IFNγ in the culture medium was measured. In the therapeutic assay, hair follicles were initially treated with IL-12±IL-18; then the compound of Formula (II) or tofacitinib was added and the culture continued, after which IFNγ in the culture medium was measured. The data in FIGS. 39 and 40 are based on the amount of IFNγ measured in pooled culture medium from n=8 hair follicles per group, obtained from 1-2 healthy donors. The graphs show mean±SEM from technical duplicates.

[2] = system: microdissected hair follicles from human scalp; assay: Therapeutic assay: compound added after IL-12+IL-18-induced immune privilege collapse, MHC class I and II expression; assay type: cell-based
From the text: The above assays were adapted to investigate whether TYK2 inhibition can inhibit ongoing IL-12+IL-18-mediated hair follicle immune privilege collapse, and thus whether TYK2 inhibition is a viable therapeutic strategy for treating alopecia areata. In these assays, immune privilege collapse was first induced by treatment with IL-12+IL-18, followed by the addition of the compound of Formula (II).
To assess whether TYK2 inhibition could restore hair follicle immune privilege, 21-31 hair follicles, obtained from 3-4 independent healthy donors, were cultured with vehicle, or with IL-12 (3 ng/mL) and IL-18 (20 ng/ml), for 5-6 days. On day 2 of culture, the compound of Formula (II) (300 nM) or tofacitinib (400 nM) was added until day 5-6. MHC class I expression and MHC class II expression were measured, as was done previously. The graphs in FIGS. 28-31 show mean±SEM, with p-values from the Dunn's multiple comparison test (*p<0.05; **p<0.01; ***p<0.001; ****p<0.0001). FIGS. 32 and 33 show staining of MHC-I and MHC-II, respectively, in hair follicles (scale bar=100 μm). […] As discussed above, MHC class I and II are markers of immune privilege collapse.

[3] = system: microdissected hair follicles from human scalp; assay: Prophylactic assay: pre-treatment before IL-12+IL-18, MHC class I and II levels; assay type: cell-based
Protocol: To address the role of IL-12 in AA pathobiology and its potential as a therapeutic target, microdissected hair follicles from human scalp were cultured in the presence of IL-12 (3 ng/mL) and IL-18 (20 ng/mL) and in the presence or absence of a selective allosteric TYK2 inhibitor, the compound of Formula (II) (300 nM). IFNγ (75 UI/mL) was used as a positive control to induce immune privilege (IP) collapse, and tofacitinib was used as a positive control for blocking IFNγ signaling. Hair follicle immune privilege (HF-IP) was assessed by quantitative immunohistomorphometry of MHC class I, of MHC class II, and of MHC class chain-related protein A and MHC class chain-related protein B (MICA/B).
Hair follicles were pre-treated with the compound having the structure of Formula (II) (denoted “BMS” in the figures), followed by the addition of IL-12 and IL-18, in a prophylactic assay. Tofacitinib was used as a control, for comparison. For this assay, each group included 19-40 hair follicles, obtained from 3-5 independent healthy donors. The groups were treated as follows: with vehicle, with the compound of Formula (II) (300 nM), or with tofacitinib (400 nM) for 5-6 days; on day 2 of culture, vehicle, or IL-12 (3 ng/ml) and IL-18 (20 ng/mL) were added. Levels of MHC class I and of MHC class II were assessed as described above, and FIGS. 17-22 provide the results. The graphs in FIGS. 17-20 show mean±SEM and results of the Dunn's multiple comparison test (*p<0.05; **p<0.01; ****p<0.0001). FIGS. 21 and 22 show staining of MHC-I and MHC-II, respectively, in hair follicles (scale bar=100 μm).

[4] = system: microdissected hair follicles from human scalp; assay: Prophylactic assay: pre-treatment before IL-12+IL-18, CD3+ T cell and CD56+ NK cell quantification; assay type: cell-based; details: pre-treatment 300 nM, 5-6 days; IL-12+IL-18 added on day 2
Protocol: as §1
The effect of pre-treatment with the compound of Formula (II) on T cell and NK cell expansion following IL-12 and IL-18 stimulation was also examined. 22-40 hair follicles, obtained from 4-5 independent healthy donors, were incubated with vehicle, with the compound of Formula (II) (300 nM), or with tofacitinib (400 nM) for 5-6 days. On day 2 of culture, vehicle, or IL-12 (3 ng/ml) and IL-18 (20 ng/mL) were added. Resident immune cell populations were assessed by quantification of CD3-positive cells and of CD56-positive cells. FIGS. 23-27 provide the results. The graphs in FIGS. 23-26 show mean±SEM and results of the Dunn's multiple comparison test (*p<0.05; ***p<0.001). […] Pre-treatment with the compound of Formula (II) prevented an elevation of CD3+ T cell frequency and of CD56+ NK cell frequency, consistent with the results above.

[5] = system: microdissected hair follicles from human scalp; assay: Therapeutic assay: compound added after IL-12+IL-18, T cell and NK cell expansion (CD3/CD56 immunostaining); assay type: cell-based; details: 300 nM added on day 2 of IL-12+IL-18 culture
Protocol: To assess whether TYK2 inhibition can block ongoing T cell and NK cell expansion, hair follicles were first incubated with vehicle, or with IL-12+IL-18, followed by the addition of the compound of Formula (II) or of tofacitinib. Specifically, 24-33 hair follicles, obtained from 3-4 independent healthy donors, were treated with vehicle, or with IL-12 (3 ng/ml) and IL-18 (20 ng/ml), for 5-6 days. On day 2 of culture, the compound of Formula (II) (300 nM) or tofacitinib (400 nM) was added. T cell expansion and NK cell expansion were assessed by immunostaining for CD3 (T cells) or CD56 (NK cells). The graphs in FIGS. 34-37 show mean±SEM, with p-values from the Dunn's multiple comparison test (*p<0.05; **p<0.01; ***p<0.001; ****p<0.0001). FIG. 38 provides images of staining for CD3 and CD56 in hair follicles (scale bar=50 μm).

[6] = 400 nM added on day 2 until day 5-6 of IL-12+IL-18 culture
[7] = 300 nM for 5-6 days, IL-12 3 ng/mL and IL-18 20 ng/mL added on day 2
[8] = 300 nM added on day 2 until day 5-6 of IL-12+IL-18 culture

SMILES	IFNγ release into the culture medium [1]	restoration of IFNγ secretion to baseline ([1]; therapeutic assay: IL-12+IL-18 first, then compound added)	IL-12+IL-18-induced expression of MHC class I [2, 6]	IL-12+IL-18-induced expression of MHC class II [2, 6]	IL-12+IL-18-mediated upregulation of MHC class I in the outer root sheath [3, 7]	IL-12+IL-18-mediated upregulation of MHC class II in the outer root sheath [3, 7]	effect on MHC class I and II upregulation compared with tofacitinib ([3]; compound 300 nM versus tofacitinib 400 nM, prophylactic)	IL-12 and IL-18-induced immune privilege collapse of hair follicles ([3]; pre-treatment, 300 nM)	elevation of CD3+ T cell frequency [4]	elevation of CD56+ NK cell frequency [4]	NK cell expansion induced by IL-12 and IL-18 (hair follicle epithelium and mesenchyme) [5]	T cell expansion induced by IL-12 and IL-18 (hair follicle epithelium and mesenchyme) [5]	IL-12+IL-18-induced expression of MHC class I [2, 8]	IL-12+IL-18-induced expression of MHC class II [2, 8]
C[C@@H]1CCN(C(=O)CC#N)C[C@@H]1N(C)c1ncnc2[nH]ccc12 [tofacitinib, reference compound]	did not decrease	such restoration was not observed	significantly reduced	significantly reduced										
[2H]C([2H])([2H])NC(=O)c1cnc(NC(=O)C2CC2)cc1Nc1cccc(-c2ncc(F)cn2)c1OC [compound of Formula (II)]	inhibiting IFNγ release				prevented	prevented	greater than the effect observed with tofacitinib	prevented	prevented	prevented	reversed	reversed	significantly reduced	significantly reduced
